From ChEMBL document CHEMBL1221220, “Transport and signaling via the amino acid binding site of the yeast Gap1 amino acid transceptor” (Nat Chem Biol, 2009)
Where a chain is given by its changes, count along the chain named. Activity calls are given as the source filed them. No cut-off for these calls is given here.

Tests used:
[1] = test system: T1, General amino-acid permease GAP1 (Saccharomyces cerevisiae), P19145 [A396C]; experiment: Activation of yeast Gap1 A396C mutant-mediated amino acid uptake at 10 mM
T1 sequence (whole entry): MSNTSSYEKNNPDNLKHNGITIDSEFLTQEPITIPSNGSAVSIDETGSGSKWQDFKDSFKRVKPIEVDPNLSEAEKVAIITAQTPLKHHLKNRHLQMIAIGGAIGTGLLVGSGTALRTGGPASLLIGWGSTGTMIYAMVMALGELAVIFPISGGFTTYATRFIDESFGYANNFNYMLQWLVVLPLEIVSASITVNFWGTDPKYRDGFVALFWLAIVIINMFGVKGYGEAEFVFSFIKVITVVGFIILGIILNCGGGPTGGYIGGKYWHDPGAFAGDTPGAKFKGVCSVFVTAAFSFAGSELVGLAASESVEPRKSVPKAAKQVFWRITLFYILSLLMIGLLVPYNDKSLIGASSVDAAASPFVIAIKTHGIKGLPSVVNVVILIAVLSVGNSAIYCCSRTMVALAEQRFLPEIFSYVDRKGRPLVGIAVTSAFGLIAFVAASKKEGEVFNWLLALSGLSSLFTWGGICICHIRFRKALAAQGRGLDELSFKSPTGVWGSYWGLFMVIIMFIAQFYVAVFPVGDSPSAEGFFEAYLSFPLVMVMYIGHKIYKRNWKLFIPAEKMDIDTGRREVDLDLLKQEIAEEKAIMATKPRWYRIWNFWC

[2] = test system: T2, General amino-acid permease GAP1 (Saccharomyces cerevisiae), P19145 [I384C]; experiment: Induction of yeast Gap1 I384C mutant-mediated trehalose activation at 10 mM
T2 sequence (whole entry): T1 sequence (whole entry) with I384C, C396A

[3] = test system: T3, General amino-acid permease GAP1 (Saccharomyces cerevisiae), P19145 [I382C]; experiment: Induction of yeast Gap1 I382C mutant-mediated trehalose activation at 2 mM in presence of 10 mM MTSEA treated before compound addition
T3 sequence (whole entry): T1 sequence (whole entry) with I382C, C396A

[4] = test system: T4, General amino-acid permease GAP1 (Saccharomyces cerevisiae), P19145 [A405C]; experiment: Induction of yeast Gap1 A405C mutant-mediated […] activation at 2 mM in presence of 10 mM MTSEA treated before compound addition
T4 sequence (whole entry): T1 sequence (whole entry) with C396A, A405C

[5] = test system: T1, General amino-acid permease GAP1 (Saccharomyces cerevisiae), P19145 [A396C]; experiment: Induction of yeast Gap1 A396C mutant-mediated amino acid uptake at 2 mM in presence of 10 mM MTSEA treated before compound addition

For `NC(=O)NCCC[C@H](N)C(=O)O`, the Activity [1] was “inactive”, the Activity [2] was “inactive” and the inhibition [3] was “Active”. For the same compound, the inhibition [4] was “Active” and the Activity [5] was “Active”.
